Target: human PDE10 (Homo sapiens (Human), UniProt Q9Y233)
Experiment: Evaluation of enzyme inhibitory activity: human PDE10 inhibitory effect (IMAP TR-FRET)
Format: biochemical
Conditions: cAMP substrate
Method in brief: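 IMAP TR-FRET assay: PDE10 (diluted to 2 ng/mL) was preincubated 5 min with compound in Tris pH 7.2, 10 mM MgCl2, 0.1% BSA, then reacted 60 min at room temperature with cAMP (diluted to 400 nM). 5′-AMP was read as 520/490 nm TR-FRET (ex 340 nm) after ≥3 h binding; IC50 was referenced to solvent (0%) and no-enzyme (100%) wells.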

Chain of human PDE10 (Q9Y233 whole entry): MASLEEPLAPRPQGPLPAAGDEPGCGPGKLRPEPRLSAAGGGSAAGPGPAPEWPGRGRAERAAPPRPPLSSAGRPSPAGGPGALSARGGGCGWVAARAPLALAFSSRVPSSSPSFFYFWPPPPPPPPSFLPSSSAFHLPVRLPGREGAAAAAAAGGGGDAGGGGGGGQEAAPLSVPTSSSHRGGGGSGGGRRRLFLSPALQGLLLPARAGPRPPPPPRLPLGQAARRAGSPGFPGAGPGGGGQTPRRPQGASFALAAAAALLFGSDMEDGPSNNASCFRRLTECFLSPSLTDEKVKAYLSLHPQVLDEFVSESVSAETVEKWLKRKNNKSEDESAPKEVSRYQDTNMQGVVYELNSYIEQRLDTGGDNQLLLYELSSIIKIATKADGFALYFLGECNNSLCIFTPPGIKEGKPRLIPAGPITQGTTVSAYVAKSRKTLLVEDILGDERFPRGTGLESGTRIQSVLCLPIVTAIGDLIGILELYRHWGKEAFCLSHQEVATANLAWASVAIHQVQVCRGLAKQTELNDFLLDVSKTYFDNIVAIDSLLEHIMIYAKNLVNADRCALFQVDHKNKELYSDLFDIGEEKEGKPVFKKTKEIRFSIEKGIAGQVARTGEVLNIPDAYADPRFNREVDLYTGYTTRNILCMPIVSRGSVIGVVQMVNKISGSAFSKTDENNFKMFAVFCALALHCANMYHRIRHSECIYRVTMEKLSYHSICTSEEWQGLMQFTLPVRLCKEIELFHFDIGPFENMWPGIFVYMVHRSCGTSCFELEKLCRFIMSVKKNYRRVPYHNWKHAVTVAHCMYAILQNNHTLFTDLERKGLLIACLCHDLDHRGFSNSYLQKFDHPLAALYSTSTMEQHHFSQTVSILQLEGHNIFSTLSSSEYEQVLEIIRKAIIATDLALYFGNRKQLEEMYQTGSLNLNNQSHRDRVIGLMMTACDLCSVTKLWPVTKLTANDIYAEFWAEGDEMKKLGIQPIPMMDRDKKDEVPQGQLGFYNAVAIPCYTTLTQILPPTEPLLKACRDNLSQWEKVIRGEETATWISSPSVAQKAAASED

Row | SMILES | IC50 [nM]
1 | COc1cccnc1-c1cnn(C)c1C(=O)Nc1cc2nc(-c3ccccc3)nn2cc1F [Example 3.7, N-(6-fluoro-2-phenyl-[1,2,4]triazolo[1,5-a]pyridin-7-yl)-4-(3-methoxypyridin-2-yl)-1-methyl-1H-pyrazole-5-carboxamide] | < 5
2 | C[C@@H]1CN(c2nc3cc(NC(=O)c4c(-c5nc(C(F)F)cs5)cnn4C)ccn3n2)C[C@H](C)O1 [Example 3.19, 4-(4-(difluoromethyl)thiazol-2-yl)-N-(2-((2S,6R)-2,6-dimethylmorpholino)-[1,2,4]triazolo[1,5-a]pyridin-7-yl)-1-methyl-1H-pyrazole-5-carboxamide] | < 5
3 | COc1nccnc1-c1cnn(C)c1C(=O)Nc1cc2nc(-c3ccccc3)nn2cc1F [Example 3.28, N-(6-fluoro-2-phenyl-[1,2,4]triazolo[1,5-a]pyridin-7-yl)-4-(3-methoxypyrazin-2-yl)-1-methyl-1H-pyrazole-5-carboxamide] | < 5
4 | Cc1sc(-c2cnn(C)c2C(=O)NC2CCn3cc(-c4ccccc4)nc3C2)nc1C(F)F (stereo not drawn) [Example 2.6, 4-(4-(difluoromethyl)-5-methylthiazol-2-yl)-1-methyl-N-(2-phenyl-5,6,7,8-tetrahydroimidazo[1,2-a]pyridin-7-yl)-1H-pyrazole-5-carboxamide] | < 5
5 | Cc1cc(-c2cnn(C)c2C(=O)Nc2cc3nc(-c4ccccc4)nn3cc2F)ncn1 [Example 3.39, N-(6-fluoro-2-phenyl-[1,2,4]triazolo[1,5-a]pyridin-7-yl)-1-methyl-4-(6-methylpyrimidin-4-yl)-1H-pyrazole-5-carboxamide] | < 5
6 | COc1cncc(-c2cnn(C)c2C(=O)Nc2cc3nc(-c4ccccc4)nn3cc2F)n1 [Example 3.42, N-(6-fluoro-2-phenyl-[1,2,4]triazolo[1,5-a]pyridin-7-yl)-4-(6-methoxypyrazin-2-yl)-1-methyl-1H-pyrazole-5-carboxamide] | < 5

Results, then the compound that gave them:

Row | IC50 [nM] | SMILES
7 | < 5 | Cc1cncc(-c2cnn(C)c2C(=O)Nc2ccn3nc(N4CCCC4)nc3c2)n1 [Example 4.29, 1-methyl-4-(6-methylpyrazin-2-yl)-N-(2-(pyrrolidin-1-yl)-[1,2,4]triazolo[1,5-a]pyridin-7-yl)-1H-pyrazole-5-carboxamide]
8 | < 5 | Cn1ncc(-c2cccc(C(F)(F)F)n2)c1C(=O)Nc1ccn2nc(N3CC[C@H](F)C3)nc2c1 [Example 4.16, (S)-N-(2-(3-fluoropyrrolidin-1-yl)-[1,2,4]triazolo[1,5-a]pyridin-7-yl)-1-methyl-4-(6-(trifluoromethyl)pyridin-2-yl)-1H-pyrazole-5-carboxamide]
9 | < 5 | Cn1ncc(-c2nc(C(F)(F)F)cs2)c1C(=O)Nc1ccn2nc(N3CC[C@H](F)C3)nc2c1 [Example 4.22, (S)-N-(2-(3-fluoropyrrolidin-1-yl)-[1,2,4]triazolo[1,5-a]pyridin-7-yl)-1-methyl-4-(4-(trifluoromethyl)thiazol-2-yl)-1H-pyrazole-5-carboxamide]
10 | < 5 | Cc1sc(-c2cnn(C)c2C(=O)NC2CCn3nc(-c4ccc(F)cc4)nc3C2)nc1C(F)F (stereo not drawn) [Example 5.36, 4-(4-(difluoromethyl)-5-methylthiazol-2-yl)-N-(2-(4-fluorophenyl)-5,6,7,8-tetrahydro-[1,2,4]triazolo[1,5-a]pyridin-7-yl)-1-methyl-1H-pyrazole-5-carboxamide]
11 | < 5 | Cc1cccc(-c2cnn(C)c2C(=O)Nc2ccn3nc(N4CC[C@H](F)C4)nc3c2)n1 [Example 4.21, (S)-N-(2-(3-fluoropyrrolidin-1-yl)-[1,2,4]triazolo[1,5-a]pyridin-7-yl)-1-methyl-4-(6-methylpyridin-2-yl)-1H-pyrazole-5-carboxamide]
12 | < 5 | Cn1ncc(-c2nc(C(F)F)c(Cl)s2)c1C(=O)NC1CCn2nc(-c3ccccc3)nc2C1 (stereo not drawn) [Example 5.29, 4-(5-chloro-4-(difluoromethyl)thiazol-2-yl)-1-methyl-N-(2-phenyl-5,6,7,8-tetrahydro-[1,2,4]triazolo[1,5-a]pyridin-7-yl)-1H-pyrazole-5-carboxamide]

Reference: patent US9777000B2, “Pyrazole derivative” (MOCHIDA PHARMACEUTICAL CO., LTD., priority 2013, dated 2017)
